Measured values reported in patent publication US20250296914A1, “ANTIVIRAL COMPOUNDS AND COMPOSITIONS THEREFROM” (CONSEJO SUPERIOR DE INVESTIGACIONES CIENTÍFICAS, priority 2022, published 2025).

What was measured:
[1] = tested on: SARS-CoV-2 stock strain NL/2020; assay: Protective effect against virus-induced cytopathic effect (crystal violet staining of Vero-E6 monolayer); type: cell-based; conditions: Severe acute respiratory syndrome coronavirus 2, Vero C1008, 72 h, Vero-E6, SARS-CoV-2 MOI 0.001, 72 h; for minimal effective concentration: 50 to 0.78 μM tested, read-out: PC MIN (lowest protective concentration); for EC50: lowest fully protecting concentration averaged with next lower dilution, read-out: ESTIMATED EC50
[2] = in vitro; conditions: human
[3] = tested on: SARS-CoV-2 stock strain NL/2020; assay: Intracellular viral antigen (N protein) accumulation by immunofluorescence, A549-ACE2; type: cell-based; conditions: Severe acute respiratory syndrome coronavirus 2; A549-ACE2, MOI 0.005, viral antigen staining, 48 h
[4] = tested on: SARS-CoV-2 stock strain NL/2020; assay: Intracellular viral antigen (N protein) accumulation by immunofluorescence, Calu3; type: cell-based; conditions: Severe acute respiratory syndrome coronavirus 2; Calu-3, MOI 0.005, viral antigen staining, 48 h
[5] = tested on: SARS-CoV-2 stock strain NL/2020; assay: Intracellular viral antigen (N protein) accumulation by immunofluorescence, Vero-E6; type: cell-based; conditions: Severe acute respiratory syndrome coronavirus 2, Vero C1008; Vero-E6, MOI 0.005, viral antigen staining, 24 h
[6] = in vitro; conditions: African green monkey
[7] = tested on: SARS-CoV-2 stock strain NL/2020; assay: Intracellular viral RNA quantification by RT-qPCR in A549-ACE2 cells; type: cell-based; conditions: for LOG viral RNA reduction: A549-ACE2, MOI 0.005, 48 h, vs DMSO; for Prevention of SARS-CoV-2 propagation (in words): A549-ACE2, conclusion from Table 5
[8] = in vitro; conditions: human; remark: listed apart in the source
[9] = tested on: WNV-GFP virus; type: cell-based, West Nile Virus; conditions: Huh-7, MOI 0.01, 48 h, FIG. 2
[10] = tested on: VSV-GFP virus; type: cell-based, Vesicular Stomatitis Virus
[11] = tested on: hCoV-229E-GFP virus; type: cell-based, Human coronavirus 229E

SMILES | minimal effective concentration [1] | EC50 [1] | CC50 at 48 h [2] | EC50 [3] | EC90 [3] | EC50 [4] | EC90 [4] | EC50 [5] | EC90 [5] | CC50 at 48 h [6] | LOG viral RNA reduction ([7]; compound concentration 5 μM) | CC50 at 48 h [8] | LOG viral RNA reduction ([7]; compound concentration 4 μM) | Prevention of SARS-CoV-2 propagation (in words) [7] | Prevention of infection by West Nile Virus (GFP expression, in words) [9] | Prevention of infection by Vesicular Stomatitis Virus (GFP expression, in words) [10] | Prevention of infection with 229E-GFP (GFP expression, in words) [11]
COC(=O)c1cc(-c2ccnc(N3CCOCC3)c2)ccc1NC(C#N)[C@H](Cc1c[nH]c2ccccc12)NC(=O)OC(C)(C)C (stereo partly drawn) [(Ian), methyl 2-(((2S)-2-((tert-butoxycarbonyl)amino)-1-cyano-3-(1H-indol-3-yl)propyl)amino)-5-(2-morpholinopyridin-4-yl)benzoate] | 1.85 µM | 1390 nM | > 50000 nM | 1100 nM | 6000 nM |  |  |  |  |  |  |  |  |  |  |  | 
COC(=O)c1cc(-c2cc(OC(C)C)ccc2F)ccc1NC(C#N)[C@H](Cc1c[nH]c2ccccc12)NC(=O)OC(C)(C)C (stereo partly drawn) [(Ip), methyl 4-(((2S)-2-((tert-butoxycarbonyl)amino)-1-cyano-3-(1H-indol-3-yl)propyl)amino)-2′-fluoro-5′-isopropoxy-[1,1′-biphenyl]-3-carboxylate] | 1.56 µM | 1170 nM |  | 5000 nM | 9000 nM | 1800 nM | 8000 nM | 1500 nM | 7000 nM | > 50000 nM |  |  |  |  |  |  | 
CCC(CC)COC(=O)[C@H](C)N[P@](=O)(OC[C@H]1O[C@@](C#N)(c2ccc3c(N)ncnn23)[C@H](O)[C@@H]1O)Oc1ccccc1 [Remdesivir, remdesivir, reference compound] |  |  |  |  |  |  |  |  |  |  | 6.67 LOG |  |  |  |  |  | 
COC(=O)c1cc(-c2cccc(N3CCOCC3)c2)ccc1NC(C#N)[C@H](Cc1c[nH]c2ccccc12)NC(=O)OC(C)(C)C (stereo partly drawn) [(Ig), methyl 4-(((2S)-2-((tert-butoxycarbonyl)amino)-1-cyano-3-(1H-indol-3-yl)propyl)amino)-3′-morpholino-[1,1′-biphenyl]-3-carboxylate] | 0.78 µM | 580 nM | > 50000 nM | 1800 nM | 8000 nM | 1800 nM | 8000 nM | 1300 nM | 2000 nM | > 50000 nM |  | > 50000 nM |  |  |  |  | 
CC(C)(C)OC(=O)N[C@@H](Cc1c[nH]c2ccccc12)C(C#N)Nc1ccc(Br)cc1C(=O)c1ccccc1 (stereo partly drawn) [(Ic), (3S)-2-((4-Bromo-2-benzoylphenyl)amino)-4-(1H-indol-3-yl)-3-(tert-butoxycarbonylamino)butanenitrile] | 0.78 µM | 580 nM |  | 1000 nM | 2100 nM | 1200 nM | 1800 nM | 200 nM | 300 nM | > 50000 nM |  |  | 4.26 LOG | effective in preventing propagation of SARS-CoV-2 | not being suitable for preventing the infection | not being suitable for preventing the infection | suitable for preventing efficiently the infection
COC(=O)c1cc(-c2ccc(N3CCOCC3)nc2)ccc1NC(C#N)[C@H](Cc1c[nH]c2ccccc12)NC(=O)OC(C)(C)C (stereo partly drawn) [(Is), methyl 2-(((2S)-2-((tert-butoxycarbonyl)amino)-1-cyano-3-(1H-indol-3-yl)propyl)amino)-5-(6-morpholinopyridin-3-yl)benzoate] | 1.56 µM | 1170 nM | > 50000 nM | 2000 nM | 8000 nM | 1300 nM | 8000 nM | 400 nM | 1800 nM | > 50000 nM |  | > 50000 nM |  |  |  |  | 
COC(=O)c1cc(-c2ccc3c(c2)OCCO3)ccc1NC(C#N)[C@H](Cc1c[nH]c2ccccc12)NC(=O)OC(C)(C)C (stereo partly drawn) [(If), methyl 2-(((2S)-2-((tert-butoxycarbonyl)amino)-1-cyano-3-(1H-indol-3-yl)propyl)amino)-5-(2,3-dihydrobenzo[b][1,4]dioxin-6-yl)benzoate] | 0.78 µM | 580 nM | > 50000 nM | 1000 nM | 1800 nM | 2000 nM | 4000 nM | 1000 nM | 1800 nM | > 50000 nM |  | 50000 nM | 5.14 LOG | effective in preventing propagation of SARS-CoV-2 |  |  | 
COC(=O)c1cc(Br)ccc1NC(C#N)[C@H](Cc1c[nH]c2ccccc12)NC(=O)OC(C)(C)C (stereo partly drawn) [(Ib), methyl 5-bromo-2-(((2S)-2-((tert-butoxycarbonyl)amino)-1-cyano-3-(1H-indol-3-yl)propyl)amino)benzoate] | 0.78 µM | 580 nM |  | 1800 nM | 2700 nM | 1200 nM | 2500 nM | 500 nM | 2200 nM | > 12500 nM |  |  |  |  |  |  | 
COC(=O)c1cc(-c2ccc(N3CCCC3)nc2)ccc1NC(C#N)[C@H](Cc1c[nH]c2ccccc12)NC(=O)OC(C)(C)C (stereo partly drawn) [(Iq), methyl 2-(((2S)-2-((tert-butoxycarbonyl)amino)-1-cyano-3-(1H-indol-3-yl)propyl)amino)-5-(6-(pyrrolidin-1-yl)pyridin-3-yl)benzoate] | 1.56 µM | 1170 nM | > 50000 nM | 1500 nM | 5000 nM | 300 nM | 2500 nM | 200 nM | 900 nM | > 50000 nM |  | > 50000 nM |  |  | not being suitable for preventing the infection | not being suitable for preventing the infection | suitable for preventing efficiently the infection
CCOC(=O)c1ccccc1NC(C#N)[C@H](Cc1c[nH]c2ccccc12)NC(=O)OC(C)(C)C (stereo partly drawn) [(Ih), ethyl 2-(((2S)-2-((tert-butoxycarbonyl)amino)-1-cyano-3-(1H-indol-3-yl)propyl)amino)-benzoate] | 1.56 µM | 1170 nM |  | 4000 nM | 7000 nM | 3700 nM | 4000 nM | 100 nM | 2500 nM | > 12500 nM |  |  |  |  |  |  | 
COC(=O)c1ccc(Br)cc1NC(C#N)[C@H](Cc1c[nH]c2ccccc12)NC(=O)OC(C)(C)C (stereo partly drawn) [(Ii), methyl 4-bromo-2-(((2S)-2-((tert-butoxycarbonyl)amino)-1-cyano-3-(1H-indol-3-yl)propyl)-amino)benzoate] | 1.56 µM | 1170 nM |  | 2000 nM | 6000 nM | < 900 nM | 2700 nM | 200 nM | 1400 nM | > 12500 nM |  |  |  |  |  |  | 
CC(C)(C)OC(=O)N[C@@H](Cc1c[nH]c2ccccc12)C(C#N)Nc1ccc(Cl)cc1C(=O)c1ccccc1 (stereo partly drawn) [(Id), (3S)-3-(tert-Butoxycarbonylamino)-4-(1H-indol-3-yl)-2-((2-benzoyl-4-chlorophenyl)amino)butanenitrile] | 0.78 µM | 580 nM |  | 600 nM | 1400 nM | 300 nM | 1100 nM | 200 nM | 500 nM | > 50000 nM |  |  |  |  |  |  | 
COC(=O)c1cc(-c2cccc(N(C)C)c2)ccc1NC(C#N)[C@H](Cc1c[nH]c2ccccc12)NC(=O)OC(C)(C)C (stereo partly drawn) [(Iac), methyl 4-(((2S)-2-((tert-butoxycarbonyl)amino)-1-cyano-3-(1H-indol-3-yl)propyl)amino)-3′-(dimethylamino)-[1,1′-biphenyl]-3-carboxylate] | 3.12 µM | 2340 nM |  |  |  |  |  |  |  |  |  |  |  |  |  |  | 
COC(=O)c1ccccc1NC(C#N)[C@@H](Cc1c[nH]c2ccccc12)NC(=O)OC(C)(C)C (stereo partly drawn) [(Iak), methyl 2-(((2R)-2-((tert-butoxycarbonyl)amino)-1-cyano-3-(1H-indol-3-yl)propyl)amino)-benzoate] | 12.5 µM | 9370 nM |  |  |  |  |  |  |  |  |  |  |  |  |  |  | 
CC(C)(C)OC(=O)N[C@@H](Cc1c[nH]c2ccccc12)C(C#N)Nc1ccccc1Br (stereo partly drawn) [(Iaj), (3S)-2-((2-bromophenyl)amino)-4-(1H-indol-3-yl)-3-(tert-butoxycarbonylamino) butanenitrile] | 6.25 µM | 4690 nM |  |  |  |  |  |  |  |  |  |  |  |  |  |  | 
